# In the supplement of paper PMC11699113:
# Counter-ions that a name gives are not always drawn.
# System: ED cells (E. derm NBM-6, ATCC CCL-57)
# Assay: cell viability (ATP, CellTiter-Glo) relative to untreated control (fraction of control); higher = less cytotoxic
Structure (SMILES),"cell viability (0.5 µM, incubation time: 1h)","cell viability (0.5 µM, incubation time: 24h)","cell viability (0.5 µM, incubation time: 72h)","cell viability (0.5 µM, incubation time: 144h)","cell viability (2 µM, incubation time: 1h)","cell viability (2 µM, incubation time: 24h)","cell viability (2 µM, incubation time: 72h)","cell viability (2 µM, incubation time: 144h)","cell viability (5 µM, incubation time: 1h)","cell viability (5 µM, incubation time: 24h)","cell viability (5 µM, incubation time: 72h)","cell viability (5 µM, incubation time: 144h)","cell viability (10 µM, incubation time: 1h)","cell viability (10 µM, incubation time: 24h)","cell viability (10 µM, incubation time: 72h)","cell viability (10 µM, incubation time: 144h)","cell viability (50 µM, incubation time: 1h)","cell viability (50 µM, incubation time: 24h)","cell viability (50 µM, incubation time: 72h)","cell viability (50 µM, incubation time: 144h)",other results
CC(C)OC(=O)OCOP(=O)(CO[C@H](C)Cn1cnc2c(N)ncnc21)OCOC(=O)OC(C)C [tenofovir disoproxil fumarate],1.01,1.02,1,1.02,1.01,1.01,0.992,0.993,1.02,1,0.947,0.941,1.02,0.98,0.898,0.877,1,0.855,0.708,0.737,"cell viability (20 µM, incubation time: 1h): 1.01; cell viability (20 µM, incubation time: 24h): 0.95; cell viability (20 µM, incubation time: 72h): 0.836; cell viability (20 µM, incubation time: 144h): 0.833; cell viability (40 µM, incubation time: 1h): 0.999; cell viability (40 µM, incubation time: 24h): 0.89; cell viability (40 µM, incubation time: 72h): 0.75; cell viability (40 µM, incubation time: 144h): 0.766; cell viability (75 µM, incubation time: 1h): 1; cell viability (75 µM, incubation time: 24h): 0.795; cell viability (75 µM, incubation time: 72h): 0.643; cell viability (75 µM, incubation time: 144h): 0.662; cell viability (100 µM, incubation time: 1h): 0.999; cell viability (100 µM, incubation time: 24h): 0.721; cell viability (100 µM, incubation time: 72h): 0.643; cell viability (100 µM, incubation time: 144h): 0.624; cell viability (150 µM, incubation time: 1h): 0.988; cell viability (150 µM, incubation time: 24h): 0.613; cell viability (150 µM, incubation time: 72h): 0.545; cell viability (150 µM, incubation time: 144h): 0.527"
CCC[C@@]1(CCc2ccccc2)CC(O)=C([C@H](CC)c2cccc(NS(=O)(=O)c3ccc(C(F)(F)F)cn3)c2)C(=O)O1 [tipranavir],1,1,1.04,1.01,0.997,0.993,1.04,1.01,1,1,1.02,1,1,1.03,1.01,0.996,0.958,0.885,0.822,0.772,"cell viability (0.25 µM, incubation time: 1h): 1.01; cell viability (0.25 µM, incubation time: 24h): 1.01; cell viability (0.25 µM, incubation time: 72h): 1.04; cell viability (0.25 µM, incubation time: 144h): 1; cell viability (20 µM, incubation time: 1h): 0.982; cell viability (20 µM, incubation time: 24h): 0.966; cell viability (20 µM, incubation time: 72h): 0.99; cell viability (20 µM, incubation time: 144h): 0.973; cell viability (100 µM, incubation time: 1h): 0.789; cell viability (100 µM, incubation time: 24h): 0.718; cell viability (100 µM, incubation time: 72h): 0.557; cell viability (100 µM, incubation time: 144h): 0.405; cell viability (140 µM, incubation time: 1h): 0.636; cell viability (140 µM, incubation time: 24h): 0.505; cell viability (140 µM, incubation time: 72h): 0.294; cell viability (140 µM, incubation time: 144h): 0.109; cell viability (166 µM, incubation time: 1h): 0.622; cell viability (166 µM, incubation time: 24h): 0.498; cell viability (166 µM, incubation time: 72h): 0.212; cell viability (166 µM, incubation time: 144h): 0.0669"
Cc1cn([C@H]2C[C@H](N=[N+]=[N-])[C@@H](CO)O2)c(=O)[nH]c1=O [zidovudine],1.05,1.06,1.07,1.01,1.06,1.05,1.07,1.03,1.05,1.02,1.09,1.03,1.04,1.02,1.09,1.03,1.04,1.05,1.09,1.03,"cell viability (25 µM, incubation time: 1h): 1.02; cell viability (25 µM, incubation time: 24h): 1.02; cell viability (25 µM, incubation time: 72h): 1.08; cell viability (25 µM, incubation time: 144h): 1.04; cell viability (80 µM, incubation time: 1h): 1.04; cell viability (80 µM, incubation time: 24h): 0.981; cell viability (80 µM, incubation time: 72h): 1.07; cell viability (80 µM, incubation time: 144h): 1.03; cell viability (100 µM, incubation time: 1h): 1.04; cell viability (100 µM, incubation time: 24h): 0.98; cell viability (100 µM, incubation time: 72h): 1.08; cell viability (100 µM, incubation time: 144h): 1.04; cell viability (200 µM, incubation time: 1h): 1.03; cell viability (200 µM, incubation time: 24h): 1.04; cell viability (200 µM, incubation time: 72h): 1.09; cell viability (200 µM, incubation time: 144h): 1.06; cell viability (300 µM, incubation time: 1h): 1.02; cell viability (300 µM, incubation time: 24h): 0.958; cell viability (300 µM, incubation time: 72h): 1.08; cell viability (300 µM, incubation time: 144h): 1.06"
